Laboratory results from BindingDB's records for PubMed 2925675 (Nagoya University School of Medicine, 1989).

Experiments:
Assay in all cases: Enzyme Assay
Conditions in all cases: pH 7.4; 30 °C
[1] = target: Casein kinase I isoform alpha (Homo sapiens, UniProt P48729)
Description: (§1) Casein kinase activities were determined under the conditions as described by Huang et al (1982).

[2] = target: Casein kinase II subunit alpha (Homo sapiens, UniProt P68400)
Description: as §1

[3] = target: Calcium/calmodulin-dependent protein kinase II inhibitor 2 (Bos taurus, UniProt A5D7T0)
Calcium/calmodulin-dependent protein kinase II inhibitor 2, sequence (A5D7T0 whole entry): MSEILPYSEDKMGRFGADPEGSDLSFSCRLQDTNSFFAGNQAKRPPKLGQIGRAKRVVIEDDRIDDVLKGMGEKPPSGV

[4] = target: Protein kinase C alpha type (Homo sapiens, UniProt P17252)
[5] = target: cAMP-dependent protein kinase type I-alpha regulatory subunit (Bos taurus, UniProt P00514)
cAMP-dependent protein kinase type I-alpha regulatory subunit, sequence (P00514 whole entry): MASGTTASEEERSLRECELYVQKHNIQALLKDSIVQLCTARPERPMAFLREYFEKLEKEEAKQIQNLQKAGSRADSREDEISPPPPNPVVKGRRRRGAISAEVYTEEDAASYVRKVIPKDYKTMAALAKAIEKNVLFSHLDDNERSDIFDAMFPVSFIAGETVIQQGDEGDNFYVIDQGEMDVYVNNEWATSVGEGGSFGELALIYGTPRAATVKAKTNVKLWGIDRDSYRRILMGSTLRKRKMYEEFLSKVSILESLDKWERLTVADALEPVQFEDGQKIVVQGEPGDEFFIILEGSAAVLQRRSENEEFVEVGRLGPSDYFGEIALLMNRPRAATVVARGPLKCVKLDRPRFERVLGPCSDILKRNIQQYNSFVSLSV

Casein kinase II subunit alpha, sequence (P68400 whole entry): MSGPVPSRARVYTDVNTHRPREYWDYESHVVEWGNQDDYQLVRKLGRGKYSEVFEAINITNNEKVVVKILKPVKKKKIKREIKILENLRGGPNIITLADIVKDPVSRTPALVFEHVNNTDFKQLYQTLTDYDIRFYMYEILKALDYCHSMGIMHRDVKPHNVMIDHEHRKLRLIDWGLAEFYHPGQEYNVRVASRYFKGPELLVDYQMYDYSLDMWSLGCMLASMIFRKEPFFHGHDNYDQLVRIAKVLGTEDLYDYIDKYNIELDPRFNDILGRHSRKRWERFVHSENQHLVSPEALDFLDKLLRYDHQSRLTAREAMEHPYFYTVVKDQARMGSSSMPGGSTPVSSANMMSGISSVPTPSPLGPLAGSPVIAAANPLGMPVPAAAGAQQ
Casein kinase I isoform alpha, sequence (P48729 whole entry, canonical isoform): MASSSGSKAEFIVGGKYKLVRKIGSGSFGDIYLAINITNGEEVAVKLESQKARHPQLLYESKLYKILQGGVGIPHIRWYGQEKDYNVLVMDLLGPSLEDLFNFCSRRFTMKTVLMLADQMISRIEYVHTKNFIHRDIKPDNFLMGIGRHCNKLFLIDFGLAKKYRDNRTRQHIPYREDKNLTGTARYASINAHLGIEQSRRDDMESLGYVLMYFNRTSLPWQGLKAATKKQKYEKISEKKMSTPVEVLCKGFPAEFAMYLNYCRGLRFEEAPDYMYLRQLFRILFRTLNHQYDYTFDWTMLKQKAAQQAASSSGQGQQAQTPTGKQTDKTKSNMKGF

Row | IC50 [1] | IC50 [2] | IC50 [3] | IC50 [4] | IC50 [5] | Structure (SMILES)
1 | 110 µM | > 300 µM | 58 µM | 18 µM | 3.6 µM | NCCNS(=O)(=O)c1cccc2cnccc12 [Isoquinoline-5-sulfonic acid (2-amino-ethyl)-amide]
2 | 50 µM | > 300 µM | 840 µM | > 1000 µM | > 1000 µM | NCCNS(=O)(=O)c1cccc2ccncc12 [Isoquinolinesulfonamide, CKI-6]
3 | 9.5 µM | 90 µM | 195 µM | > 1000 µM | 550 µM | NCCNS(=O)(=O)c1ccc(Cl)c2ccncc12 [Isoquinolinesulfonamide, CKI-7]
